# Experimental data published in ChEMBL document CHEMBL5338716, “Synthesis and anti-trypanosomal evaluation of novel N-branched acyclic nucleoside phosphonates bearing 7-aryl-7-deazapurine nucleobase” (Eur J Med Chem, 2022).
# pEC50, pIC50, pKi: −log10 of the molar value.
# How the values were obtained:
# [1] = Selectivity index, ratio of IC50 for human NHDF cells to EC50 for Trypanosoma brucei brucei; assay type: functional
# [2] = Cytotoxicity against human HeLa S3 cells assessed as cell growth inhibition; assay type: toxicity, cell-based
# [3] = Cytotoxicity against human HL-60 cells assessed as cell growth inhibition; assay type: toxicity, cell-based
# [4] = Cytotoxicity against human CCRF-CEM cells assessed as cell growth inhibition; assay type: toxicity, cell-based
# [5] = tested on: Trypanosoma brucei brucei; experiment: Antitrypanosomal activity against Trypanosoma brucei brucei assessed as reduction in parasite growth by cell-based assay; assay type: functional, organism-based
# [6] = Cytotoxicity against human NHDF cells assessed as cell growth inhibition; assay type: toxicity, cell-based
# [7] = Cytotoxicity against human HepG2 cells assessed as cell growth inhibition; assay type: toxicity, cell-based
# [8] = Binding affinity to Trypanosoma brucei […] assessed as inhibition constant
# [9] = Selectivity index, ratio of EC50 for human MRC5 cells to EC50 for Trypanosoma brucei brucei; assay type: functional
Compound,pEC50 [5],pKi [8],Selectivity Index [1],pIC50 [2],pIC50 [3],pIC50 [4],pIC50 [6],pIC50 [7],Ratio EC50 [9]
CCOC(=O)[C@H](Cc1ccccc1)NP(=O)(CCN(CC#N)CCn1cc(-c2ccc(OC)cc2)c2c(N)ncnc21)N[C@@H](Cc1ccccc1)C(=O)OCC,5.65,–,3.5,< 4.70,5.17,5.38,5.10,< 4.70,–
CCOC(=O)[C@H](Cc1ccccc1)NP(=O)(CCN(CCO)CCn1cc(-c2ccc(OC)cc2)c2c(N)ncnc21)N[C@@H](Cc1ccccc1)C(=O)OCC,5.46,–,3.8,< 4.70,< 4.70,5.21,4.88,< 4.70,–
CCOC(=O)[C@H](Cc1ccccc1)NP(=O)(CCN(CCn1cc(-c2ccc(OC)cc2)c2c(N)ncnc21)CCP(=O)(N[C@@H](Cc1ccccc1)C(=O)OCC)N[C@@H](Cc1ccccc1)C(=O)OCC)N[C@@H](Cc1ccccc1)C(=O)OCC,6.24,–,16.4,5.27,5.34,5.40,5.02,5.18,–
CCOC(=O)[C@H](Cc1ccccc1)NP(=O)(CCN(CC#N)CCn1cc(-c2ccccc2)c2c(N)ncnc21)N[C@@H](Cc1ccccc1)C(=O)OCC,5.79,–,6.5,4.96,5.06,5.23,4.98,< 4.70,–
CCOC(=O)[C@H](Cc1ccccc1)NP(=O)(CCN(CCC#N)CCn1cc(-c2ccc(OC)cc2)c2c(N)ncnc21)N[C@@H](Cc1ccccc1)C(=O)OCC,5.17,–,2.4,< 4.70,< 4.70,< 4.70,4.79,< 4.70,–
CCOC(=O)[C@H](Cc1ccccc1)NP(=O)(CCN(CCC#N)CCn1cc(-c2ccccc2)c2c(N)ncnc21)N[C@@H](Cc1ccccc1)C(=O)OCC,5.38,–,>4.8,< 4.70,5.07,5.25,< 4.70,4.85,–
CCOC(=O)[C@H](Cc1ccccc1)NP(=O)(CCN(CCn1cc(-c2ccccc2)c2c(N)ncnc21)CCP(=O)(N[C@@H](Cc1ccccc1)C(=O)OCC)N[C@@H](Cc1ccccc1)C(=O)OCC)N[C@@H](Cc1ccccc1)C(=O)OCC,5.92,–,7.4,5.31,5.38,5.42,5.05,5.20,–
Nc1ncnc2c1ccn2[C@@H]1O[C@H](CO)[C@@H](O)[C@H]1O [TUBERCIDIN],6.80,~3.48,0.4,7.00,6.85,6.96,7.15,7.30,4

# Continued, in another order:
pEC50 [5],pKi [8],Compound,Selectivity Index [1],pIC50 [2],pIC50 [3],pIC50 [4],pIC50 [6],pIC50 [7],Ratio EC50 [9]
–,5.76,N#CCCN(CCn1cc(-c2ccccc2)c2c(N)ncnc21)CCP(=O)(O)O,–,–,–,–,–,–,–
–,5.66,COc1ccc(-c2cn(CCN(CCC#N)CCP(=O)(O)O)c3ncnc(N)c23)cc1,–,–,–,–,–,–,–
–,5.02,N#CCN(CCn1cc(-c2ccccc2)c2c(N)ncnc21)CCP(=O)(O)O,–,–,–,–,–,–,–
–,4.97,Nc1ncnc2c1c(-c1ccccc1)cn2CCN(CCP(=O)(O)O)CCP(=O)(O)O,–,–,–,–,–,–,–
–,4.96,COc1ccc(-c2cn(CCN(CC#N)CCP(=O)(O)O)c3ncnc(N)c23)cc1,–,–,–,–,–,–,–
–,4.85,Nc1ncnc2c1c(-c1ccccc1)cn2CCN(CCO)CCP(=O)(O)O,–,–,–,–,–,–,–
–,5.65,COc1ccc(-c2cn(CCN(CCO)CCP(=O)(O)O)c3ncnc(N)c23)cc1,–,–,–,–,–,–,–
5.72,–,CCOC(=O)[C@H](Cc1ccccc1)NP(=O)(CCN(CCO)CCn1cc(-c2ccccc2)c2c(N)ncnc21)N[C@@H](Cc1ccccc1)C(=O)OCC,10,< 4.70,< 4.70,5.17,4.72,4.83,–
–,5.40,COc1ccc(-c2cn(CCN(CCP(=O)(O)O)CCP(=O)(O)O)c3ncnc(N)c23)cc1,–,–,–,–,–,–,–
